Results: paper PMC9499386, “New Inhibitors of the Human p300/CBP Acetyltransferase Are Selectively Active against the Arabidopsis HAC Proteins” (International Journal of Molecular Sciences, 2022)

Assays:
[1] = biological target: T1, HAC1 catalytic domain (recombinant HAC1) (Arabidopsis thaliana, UniProt Q9C5X9); test: colorimetric antibody-based HAT activity assay (EpiGentek P-4003), […] nm; format: biochemical
T1 construct: HAT catalytic domain aa 1081-1517 (nt 3241-4551 of CDS), C-terminal 6xHis tag, pET28a, E. coli BL21(DE3), partially purified, 52 kDa

[2] = biological target: T1, HAC1 catalytic domain (recombinant HAC1); test: as above; format: biochemical; details: kit HAT substrate as acetyl acceptor, 45 min at 37 °C; partially purified enzyme

T1 sequence (Q9C5X9 1081-1517): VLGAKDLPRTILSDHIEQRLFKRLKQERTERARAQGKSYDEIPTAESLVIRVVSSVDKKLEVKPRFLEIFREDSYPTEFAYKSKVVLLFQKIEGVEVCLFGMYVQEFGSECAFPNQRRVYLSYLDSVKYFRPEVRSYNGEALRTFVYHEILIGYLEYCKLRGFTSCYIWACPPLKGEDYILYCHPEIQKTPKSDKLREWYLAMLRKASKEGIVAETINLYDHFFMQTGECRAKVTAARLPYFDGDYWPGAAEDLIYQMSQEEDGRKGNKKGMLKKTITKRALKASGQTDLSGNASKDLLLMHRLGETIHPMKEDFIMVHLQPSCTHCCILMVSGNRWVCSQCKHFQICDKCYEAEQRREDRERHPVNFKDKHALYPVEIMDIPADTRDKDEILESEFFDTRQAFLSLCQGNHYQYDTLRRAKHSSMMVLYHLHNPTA

inhibition at 6 µM [1] [%] | SMILES | colorimetric antibody-based HAT activity assay (EpiGentek P-4003), 450 nm [2]
83 | O=C1C(Cc2ccc(O)c(Br)c2)CCCC1Cc1ccc(O)c(Br)c1 (centres unmarked) [2c, 2,6-Bis(3-bromo-4-hydroxybenzyl)cyclohexanone] | –
– | CC(=O)SCCNC(=O)CCNC(=O)[C@H](O)C(C)(C)COP(=O)(O)OP(=O)(O)OC[C@H]1O[C@@H](n2cnc3c(N)ncnc32)[C@H](O)[C@@H]1OP(=O)(O)O [acetyl-CoA] | strip wells were incubated with acetyl-CoA and partially purified HAC1 catalytic domain
